This is an account of results in patent US20240238296A1, “METHODS OF REGULATING BCL11A EXPRESSION AND TREATMENT OF BCL11A-MEDIATED DISORDERS” (Fulcrum Therapeutics, Inc., priority 2021, published 2024).

One assay has as its system TFRC. Kind of assay: RNA-Seq of housekeeping gene TFRC expression in primary CD34+ cells. Format: cell-based, human. Particulars: Example 2; 100 nM, 7 days. The method, then: (§1) Changes in BCL11A expression and HBG1 and HBG2 expression in multiple healthy CD34+ donor cells were measured by RNA sequencing (RNA-Seq). Human Mobilized Peripheral Blood Primary CD34+ cells from 2 healthy donors and 1 sickle cell trait donor were expanded from thaw by seeding 100,000 viable cells/mL in a culture flask containing CD34+ Phase 1 Media comprised of IMDM, 100 ng/ml hSCF, 5 ng/ml IL-3, 3 IU/mL EPO, 250 μg/mL transferrin, 2.5% normal human serum, 1% pen/strep, 10 ng/ml heparin, 10 μg/mL insulin. The cells were supplemented by adding an additional 1X culture volume of CD34+ Phase 1 Media on Day 3 after thaw. At Day 7 post-thaw, cells were seeded at 0.111×10^6 cells/ml in 1.5 mLs of Phase 1 media in 12-well plates and compound was applied. […]
(§2) RNA was extracted from Day 14 post-thaw primary CD34+ cells that were differentiated and treated for 7 days with DMSO, 100 nM of Compound 1, or 100 nM of Compound 2 using Ambion mirVana RNA extraction kits. […] Sequenced raw reads of fastq files from all samples were mapped to hg38 genome assemblies using ArrayStudio aligner. Raw read counts and FPKM were calculated for all genes and DESeq2 was applied to calculate differentially expressed genes using general linear model. […]

For another assay, the system named is BCL11A. Put plainly: RNA-Seq of BCL11A mRNA expression in erythroid-differentiated primary CD34+ cells. Format: cell-based, human. As to the method:
Human Mobilized Peripheral Blood Primary CD34+ cells from healthy donors were expanded from thaw by seeding 100,000 viable cells/mL in a culture flask containing CD34+ Phase 1 Media comprised of IMDM, 100 ng/ml hSCF, 5 ng/ml IL-3, 3 IU/mL EPO, 250 μg/mL transferrin, 2.5% normal human serum, 1% pen/strep, 10 ng/ml heparin, 10 μg/mL insulin. The cells were supplemented by adding an additional 1X culture volume of CD34+ Phase 1 Media on Day 3 after thaw. At Day 7 post-thaw, cells were seeded at 0.111×10^6 cells/ml in 1.5 mLs of Phase 1 media in 12-well plates and compound was applied. On Day 10 post-thaw, cells were differentiated towards the erythroid lineage by complete medium exchange into CD34+ Phase 2 Media comprised of IMDM, 100 ng/ml hSCF, 3 IU/mL EPO, 250 μg/mL transferrin, 2.5% normal human serum, 1% pen/strep, 10 ng/mL heparin, 10 μg/mL insulin and compound treatment was reapplied. On Day 12 post-thaw the plates were centrifuged, and 1 mL of Phase 2 media exchanged with fresh Phase 2 media and compound. The cells were harvested on Day 14 post-thaw for downstream analyses.
(§3) RNA was extracted from Day 14 post-thaw primary CD34+ cells that were differentiated and treated for 7 days with DMSO, 11 nM, 33 nM, 100 nM, or 300 nM of Compound 1 using Ambion mirVana RNA extraction kits. […] Sequenced raw reads of fastq files from all samples were mapped to hg38 genome assemblies using ArrayStudio aligner. Raw read counts and FPKM were calculated for all genes and DESeq2 was applied to calculate differentially expressed genes using general linear model. […]
Changes in BCL11A expression and HBG1 and HBG2 expression in multiple healthy CD34+ donor cells were measured by RNA sequencing (RNA-Seq). […]
RNA was extracted from Day 14 post-thaw primary CD34+ cells that were differentiated and treated for 7 days with DMSO, 100 nM of Compound 1, or 100 nM of Compound 2 using Ambion mirVana RNA extraction kits. […] Sequenced raw reads of fastq files from all samples were mapped to hg38 genome assemblies using ArrayStudio aligner. […]

Assay [1] deals with HbF. Kind of assay: Percentage HbF by cation-exchange HPLC in erythroid-differentiated primary CD34+ cells. The class given is cell-based, human. Particulars: Example 2; 100 nM, 7 days. The method, then: as §1
Hemoglobin protein tetramers were analyzed using HPLC analysis following a protocol derived from Gravett et al. Science 2018. […] Hemolysates were cleared by centrifugation and analyzed for identity and levels of hemoglobin variants (HbF and HbA) by cation-exchange HPLC with a weak cation-exchange column (Poly CAT A: 35 mm×4.6 mm, Poly LC, Inc., Columbia, MD). […] Species were monitored with UV absorbance at 410 nm. […] The abundance of HbF, HbS, and HbA was quantified by calculating the area under the curve for each species in the samples. % HbF was calculated as HbF/(HbF+HbS+HbA)*100. […]

For the next assay, the system named is HBG2. Kind of assay: RNA-Seq of HBG2 expression in erythroid-differentiated primary CD34+ cells. Format: cell-based, human. As to the method: as §1, with “applied. On Day 10 post-thaw, cells were differentiated towards the erythroid lineage by complete medium exchange into CD34+ Phase 2 Media comprised of IMDM, 100 ng/ml hSCF, 3 IU/mL EPO, 250 μg/mL transferrin, 2.5% normal human serum, 1% pen/strep, 10 ng/ml heparin, 10 μg/mL insulin and compound treatment was reapplied.” for “applied.”
as §2, §3

The next assay deals with HBG1. Put plainly: RNA-Seq of HBG1 expression in erythroid-differentiated primary CD34+ cells. Format: cell-based, human. As to the method:
as §1, with “applied. On Day 10 post-thaw, cells were differentiated towards the erythroid lineage by complete medium exchange into CD34+ Phase 2 Media comprised of IMDM, 100 ng/ml hSCF, 3 IU/mL EPO, 250 μg/mL transferrin, 2.5% normal human serum, 1% pen/strep, 10 ng/ml heparin, 10 μg/mL insulin and compound treatment was reapplied.” for “applied.”
as §2, §3

Another assay relates to H3K27me3. Kind of assay: Target engagement: H3K27me3 flow cytometry in Ter119+ bone marrow cells of Townes SCD mice. Particulars: after 28 days of treatment, FIG. 8A. Format: in vivo, mouse. An excerpt:
The Townes SCD mouse model was used to study the in vivo pharmacologic activity of Compound 1 in a model with the relevant human globin genes (HBG1 and HBBE6V) integrated into the mouse beta globin locus. […] […] People living with sickle cell present with impaired erythropoiesis leading to elevated reticulocytes, decreased red blood cell count, and total hemoglobin, and additionally display markers of inflammation such as elevated neutrophils and white blood cells. Similarly, the Townes mouse model recapitulates these hematological aspects of SCD.
(Flow cytometry measures light scatter and fluorescence of single cells or particles in a stream.)

In assay [2] the test system is HbF. Kind of assay: % HbF of total hemoglobin by HPLC from whole blood in Townes SCD mouse model. The class given is in vivo. Particulars: Townes SCD mice; whole blood after 21 days of treatment; FIG. 8C. An excerpt: The Townes SCD mouse model was used to study the in vivo pharmacologic activity of Compound 1 in a model with the relevant human globin genes (HBG1 and HBBE6V) integrated into the mouse beta globin locus. Hydroxyurea was used as a benchmark for this 21-day study. […] People living with sickle cell present with impaired erythropoiesis leading to elevated reticulocytes, decreased red blood cell count, and total hemoglobin, and additionally display markers of inflammation such as elevated neutrophils and white blood cells. Similarly, the Townes mouse model recapitulates these hematological aspects of SCD.

The mark [3] stands for this setting: Example 2, 100 nM, 7 days, all donors studied (D069, D144, D326), FIG. 2.
Setting [4] is: Example 5, 4-point concentration response curves, FIG. 5A.
The mark [5] stands for this setting: Example 5, 4-point concentration response curves, FIG. 5C.
[6] abbreviates: Example 5, 4-point concentration response curves, FIG. 5B.

For `Cn1nccc1-c1cc2c(n3cnnc13)NCc1c(F)ccc3c1[C@H](CO3)CO2` [Compound 2], the “expression of the housekeeping gene TFRC” value in the assay on TFRC is on record as “did not result in substantial changes in expression”. Further, the BCL11A expression entry with BCL11A (setting [3]) was “decreased”; in the assay on BCL11A (setting [4]) it was “reduction”. Also, in the assay with HbF [1], the “increase in percentage HbF by HPLC” value was “approximately 2 fold”. The HBG2 expression result with HBG2 (setting [3]) is reported as “increase”; in the assay on HBG2 (setting [5]), “induction”. The HBG1 expression result with HBG1 (setting [3]) is reported as “increase”; in the assay on HBG1 (setting [6]) it was “induction”.
As to `NC(=O)NO` [hydroxyurea], the “levels of H3K27me3 in Ter119+ bone marrow cells” value with H3K27me3 is on record as “not”. In the assay with HbF [2], the “% HbF of total hemoglobin by HPLC” value is recorded as “no change”.
For `COc1cc(C)[nH]c(=O)c1CN1CCc2c(Cl)cc([C@@H](OC)C3COC3)c(Cl)c2C1=O` [Compound 3], the BCL11A expression entry in the assay with BCL11A (setting [4]) is on record as “reduction”. In addition, the HBG2 expression result in the assay with HBG2 (setting [5]) is on record as “induction”. Further, the HBG1 expression entry in the assay with HBG1 (setting [6]) is on record as “induction”.
